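Abbreviation: GI50, concentration required for 50% inhibition of growth. TGI: total growth inhibition.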
Key:
Experiment in all cases: NCI-60 cell line screen, 384-well format
786-0 renal = tested on: 786-0 renal
A498 renal = tested on: A498 renal
A549 NSCLC = tested on: A549 NSCLC
ACHN renal = tested on: ACHN renal
BT-549 breast = tested on: BT-549 breast
CAKI-1 renal = tested on: CAKI-1 renal
CCRF-CEM leukemia = tested on: CCRF-CEM leukemia
COLO 205 colon = tested on: COLO 205 colon
DU-145 prostate = tested on: DU-145 prostate
EKVX NSCLC = tested on: EKVX NSCLC
HCC-2998 colon = tested on: HCC-2998 colon
HCT-116 colon = tested on: HCT-116 colon
HCT-15 colon = tested on: HCT-15 colon
HL-60(TB) leukemia = tested on: HL-60(TB) leukemia
HOP-62 NSCLC = tested on: HOP-62 NSCLC
HOP-92 NSCLC = tested on: HOP-92 NSCLC
HS 578T breast = tested on: HS 578T breast
HT29 colon = tested on: HT29 colon
IGROV1 ovarian = tested on: IGROV1 ovarian
K-562 leukemia = tested on: K-562 leukemia
KM12 colon = tested on: KM12 colon
LOX IMVI melanoma = tested on: LOX IMVI melanoma
M14 melanoma = tested on: M14 melanoma
MALME-3M melanoma = tested on: MALME-3M melanoma
MCF7 breast = tested on: MCF7 breast
MDA-MB-231 breast = tested on: MDA-MB-231 breast
MDA-MB-435 melanoma = tested on: MDA-MB-435 melanoma
MDA-MB-468 breast = tested on: MDA-MB-468 breast
MOLT-4 leukemia = tested on: MOLT-4 leukemia
NCI-H226 lung = tested on: NCI-H226 lung
NCI-H23 lung = tested on: NCI-H23 lung
NCI-H322M lung = tested on: NCI-H322M lung
NCI-H460 NSCLC = tested on: NCI-H460 NSCLC
NCI-H522 lung = tested on: NCI-H522 lung
NCI/ADR-RES ovarian = tested on: NCI/ADR-RES ovarian
OVCAR-3 ovarian = tested on: OVCAR-3 ovarian
OVCAR-4 ovarian = tested on: OVCAR-4 ovarian
OVCAR-8 ovarian = tested on: OVCAR-8 ovarian
PC-3 prostate = tested on: PC-3 prostate
RPMI-8226 leukemia = tested on: RPMI-8226 leukemia
RXF 393 renal = tested on: RXF 393 renal
SF-268 CNS = tested on: SF-268 CNS
SF-295 CNS = tested on: SF-295 CNS
SF-539 CNS = tested on: SF-539 CNS
SK-MEL-28 melanoma = tested on: SK-MEL-28 melanoma
SK-MEL-5 melanoma = tested on: SK-MEL-5 melanoma
SK-OV-3 ovarian = tested on: SK-OV-3 ovarian
SN12C renal = tested on: SN12C renal
SNB-19 CNS = tested on: SNB-19 CNS
SNB-75 CNS = tested on: SNB-75 CNS
SR leukemia = tested on: SR leukemia
SW-620 colon = tested on: SW-620 colon
T-47D breast = tested on: T-47D breast
TK-10 renal = tested on: TK-10 renal
U251 glioblastoma = tested on: U251 glioblastoma
UACC-257 melanoma = tested on: UACC-257 melanoma
UACC-62 melanoma = tested on: UACC-62 melanoma
UO-31 renal = tested on: UO-31 renal

Work on `C[C@@H]1COCCN1c1cc(C2([S@](C)(=N)=O)CC2)nc(-c2ccnc3[nH]ccc23)n1` yielded a GI50 ([…]-0 renal) of 0.718 µM, a TGI (786-0 renal) of 4.25 µM and a GI50 (A498 renal) of 0.398 µM. It also gave a TGI (A498 renal) of 1.95 µM, a GI50 (A549 NSCLC) of 3.1 µM and a TGI (A549 NSCLC) of 21.2 µM. For the same compound, the GI50 (ACHN renal) was 0.826 µM, the TGI (ACHN renal) was 6.37 µM and the GI50 (BT-549 breast) was 0.573 µM. The TGI (BT-549 breast) was 3.51 µM, the GI50 (CAKI-1 renal) was 2.74 µM and the TGI (CAKI-1 renal) was 22.8 µM. For the same compound, the GI50 (CCRF-CEM leukemia) was 0.337 µM, the TGI (CCRF-CEM leukemia) was 1.4 µM and the GI50 (COLO 205 colon) was 7.72 µM. It also gave a TGI (COLO 205 colon) of 83.7 µM, a GI50 (DU-145 prostate) of 2.8 µM and a TGI (DU-145 prostate) of over 100 µM. It also gave a GI50 (EKVX NSCLC) of 6.53 µM, a TGI (EKVX NSCLC) of 59.9 µM and a GI50 (HCC-2998 colon) of 0.231 µM. The TGI (HCC-2998 colon) was 1.6 µM, the GI50 (HCT-116 colon) was 1.39 µM and the TGI (HCT-116 colon) was 14.6 µM. It also gave a GI50 (HCT-15 colon) of 1.9 µM, a TGI (HCT-15 colon) of 56.1 µM and a GI50 (HL-60(TB) leukemia) of 0.666 µM. The TGI (HL-60(TB) leukemia) was 1.91 µM, the GI50 (HOP-62 NSCLC) was 1.1 µM and the TGI (HOP-62 NSCLC) was 4.39 µM. For the same compound, the GI50 (HOP-92 NSCLC) was 1.16 µM, the TGI (HOP-92 NSCLC) was 6.77 µM and the GI50 (HS 578T breast) was 0.336 µM. For the same compound, the TGI (HS 578T breast) was 1.72 µM, the GI50 (HT29 colon) was 3.17 µM and the TGI (HT29 colon) was 9.92 µM. For the same compound, the GI50 (IGROV1 ovarian) was 1.87 µM, the TGI (IGROV1 ovarian) was 21.6 µM and the GI50 (K-562 leukemia) was 1.63 µM. For the same compound, the TGI (K-562 leukemia) was 3.7 µM, the GI50 (KM12 colon) was 0.734 µM and the TGI (KM12 colon) was 16.5 µM. The GI50 (LOX IMVI melanoma) was 2.34 µM, the TGI (LOX IMVI melanoma) was 12.6 µM and the GI50 (M14 melanoma) was 0.896 µM. For the same compound, the TGI (M14 melanoma) was 3.26 µM, the GI50 (MALME-3M melanoma) was 3.87 µM and the TGI (MALME-3M melanoma) was 18 µM. It also gave a GI50 (MCF7 breast) of 0.431 µM, a TGI (MCF7 breast) of over 100 µM and a GI50 (MDA-MB-231 breast) of 6.1 µM. The TGI (MDA-MB-231 breast) was over 100 µM, the GI50 (MDA-MB-435 melanoma) was 3.46 µM and the TGI (MDA-MB-435 melanoma) was over 100 µM. It also gave a GI50 (MDA-MB-468 breast) of 2.9 µM, a TGI (MDA-MB-468 breast) of 15.5 µM and a GI50 (MOLT-4 leukemia) of 0.342 µM. It also gave a TGI (MOLT-4 leukemia) of 1.52 µM, a GI50 (NCI-H226 lung) of 16.3 µM and a TGI (NCI-H226 lung) of 59.3 µM. For the same compound, the GI50 (NCI-H23 lung) was 0.792 µM, the TGI (NCI-H23 lung) was 2.4 µM and the GI50 (NCI-H322M lung) was 0.815 µM. The TGI (NCI-H322M lung) was 4.99 µM, the GI50 (NCI-H460 NSCLC) was 0.455 µM and the TGI (NCI-H460 NSCLC) was 8.99 µM. For the same compound, the GI50 (NCI-H522 lung) was 12.8 µM, the TGI (NCI-H522 lung) was 81.6 µM and the GI50 (NCI/ADR-RES ovarian) was 25.4 µM. The TGI (NCI/ADR-RES ovarian) was over 100 µM, the GI50 (OVCAR-3 ovarian) was 1.94 µM and the TGI (OVCAR-3 ovarian) was 23.8 µM. It also gave a GI50 (OVCAR-4 ovarian) of 2.03 µM, a TGI (OVCAR-4 ovarian) of 31 µM and a GI50 (OVCAR-8 ovarian) of 3.77 µM. For the same compound, the TGI (OVCAR-8 ovarian) was 16.3 µM, the GI50 (PC-3 prostate) was 6.97 µM and the TGI (PC-3 prostate) was over 100 µM. The GI50 (RPMI-8226 leukemia) was 0.694 µM, the TGI (RPMI-8226 leukemia) was 2.26 µM and the GI50 (RXF 393 renal) was 1.28 µM. For the same compound, the TGI (RXF 393 renal) was 3.93 µM, the GI50 (SF-268 CNS) was 3.35 µM and the TGI (SF-268 CNS) was 46.3 µM. It also gave a GI50 (SF-295 CNS) of 1.97 µM, a TGI (SF-295 CNS) of 7.74 µM and a GI50 (SF-539 CNS) of 0.64 µM. For the same compound, the TGI (SF-539 CNS) was 2.69 µM, the GI50 (SK-MEL-28 melanoma) was 18.3 µM and the TGI (SK-MEL-28 melanoma) was 81.8 µM. It also gave a GI50 (SK-MEL-5 melanoma) of 5.24 µM, a TGI (SK-MEL-5 melanoma) of 18.7 µM and a GI50 (SK-OV-3 ovarian) of 1.59 µM. It also gave a TGI (SK-OV-3 ovarian) of 10.5 µM, a GI50 (SN12C renal) of 4.38 µM and a TGI (SN12C renal) of 55.9 µM. The GI50 (SNB-19 CNS) was 4.39 µM, the TGI (SNB-19 CNS) was 43.4 µM and the GI50 (SNB-75 CNS) was 3.51 µM. For the same compound, the TGI (SNB-75 CNS) was over 100 µM, the GI50 (SR leukemia) was 0.0322 µM and the TGI (SR leukemia) was 0.125 µM. It also gave a GI50 (SW-620 colon) of 4.88 µM, a TGI (SW-620 colon) of over 100 µM and a GI50 (T-47D breast) of 18.7 µM. It also gave a TGI (T-47D breast) of over 100 µM, a GI50 (TK-10 renal) of 0.412 µM and a TGI (TK-10 renal) of 2.42 µM. It also gave a GI50 (U251 glioblastoma) of 3 µM, a TGI (U251 glioblastoma) of 41.8 µM and a GI50 (UACC-257 melanoma) of 22.4 µM. It also gave a TGI (UACC-257 melanoma) of over 100 µM, a GI50 (UACC-62 melanoma) of 2.43 µM and a TGI (UACC-62 melanoma) of 36.8 µM. It also gave a GI50 (UO-31 renal) of 2.82 µM and a TGI (UO-31 renal) of 25.5 µM.
